Source: EP3409787A1, “TWO SNPS (SINGLE NUCLEOTIDE POLYMORPHISMS) IN THE SEQUENCE OF THE BETA, BETA-CAROTENE 15,15 DIOXYGENASE GENE AND THEIR USE” (DSM IP Assets B.V., priority 2017, dated 2018)

Experiment: Supplementation study: Total Body Stores of vitamin A (TBS) by isotope dilution with [13C10] retinyl acetate
Type: in vivo, human subjects
Details: 7 mg beta-carotene daily, 54 days, humans
Source text: The person skilled in art knows how to determine the Total Body Stores (TBS) of vitamin A, e.g. by determining the [^13C10] retinyl acetate dose after a sufficient period (circa 3 days) of isotope dilution with endogenous pools.
The study underlying the present invention analyzed inter alia the Total Body Store of vitamin A (TBS) using an isotope dilution method and [^13C10] retinol concentrations, and determined the effect of the rs7501331 or rs6564851 SNPs on BCO1 enzyme activity. To enable the analysis of SNPs on TBS, stepwise multiple regression was performed using the Akaike Information Criterion (AIC) to evaluate the covariates dietary intake of retinol, provitamin A carotenoids and retinol equivalents, age, BMI and body fat. The most significant covariant used for the selective model to analyze the SNP and TBS interaction was dietary retinol equivalent, with an AIC of 276.5. Thus, the final model tested the effects of the rs7501331 or rs6564851 SNPs on TBS at both baseline and after 54 days of supplementation accounting for dietary retinol equivalent as the only co-variant in the analysis.
The study was a randomized, single blind supplementation design combined with retrospective genotyping to test three beta-carotene formulations (7mg β-carotene/day) for a period of 8 weeks. […] On day 1 and 57 of each supplementation period, a fasting blood sample was taken before the oral administration of 2 mg of [^13C10] β-carotene and 0.4 mg of [^13C10] retinyl acetate as part of a test breakfast meal. Further blood samples were taken at 2, 4, 6, 8, 10 and 12 hours post-dose. For the first formulation (BetaTab 20%S) single fasting blood samples were also taken at day 2, 3, 4, 8, 10, 22, 36 and day 57 of the 8 week supplementation period followed by fasting blood samples at day 58, 59, 60, 64, 66, 78, 92 and 113 during the wash-out period. […] However, overall body retinol homeostasis was determined using supplement 1 (BetaTab 20% S).

CC1=C(/C=C/C(C)=C/C=C/C(C)=C/C=C/C=C(C)/C=C/C=C(C)/C=C/C2=C(C)CCCC2(C)C)C(C)(C)CCC1 [beta-carotene]
effect of rs7501331 (A379V) SNP / dominant T variant on TBS values after supplementation: can overcome
effect of the rs6564851 SNPs on TBS after supplementation: does not disappear
effect of rs7501331 (A379V) SNP / dominant T variant on TBS values after supplementation (listed as ß-carotene): disappeared
